Results published in patent publication US11878970B2, “Allosteric chromenone inhibitors of phosphoinositide 3-kinase (PI3K) for the treatment of disease” (Petra Pharma Corporation, priority 2021, dated 2024).

Columns and labels:
[1] = target: T1, PI3K-α (PIK3CA) wild-type (WT), p110α/p85α complex (Homo sapiens, UniProt P42336); test: PI3K-alpha kinase (PIK3CA) biochemical activity, ADP-Glo, wild-type
T1 construct: Recombinant, catalytically active human full length PIK3KA Wild-type and H1047R mutant; 6×His (N); purchased EMD Millipore Sigma 14-602M
How it was run: (§1)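 ADP formation measured by ADP-Glo luminescence after reaction at 27 °C to about 10% ATP turnover, using 20 uM ATP, 50 uM PIP2diC8 or soy PI lipid, HEPES pH 7.4 with MgCl2. Enzyme (1-5 nM WT or H1047R p110α/p85α) and compound preincubated 1 h first; 10-point 1:3 curves fitted four-parameter for IC50.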

[2] = target: T2, PI3K-α (PIK3CA) H1047R mutant, p110α/p85α complex (Homo sapiens, UniProt P42336, H1047R); test: PI3K-alpha kinase (PIK3CA) biochemical activity, ADP-Glo, H1047R mutant
T2 construct: Recombinant, catalytically active human full length PIK3KA Wild-type and H1047R mutant; 6×His (N); purchased EMD Millipore Sigma 14-792M
T2 sequence (P42336 whole entry H1047R): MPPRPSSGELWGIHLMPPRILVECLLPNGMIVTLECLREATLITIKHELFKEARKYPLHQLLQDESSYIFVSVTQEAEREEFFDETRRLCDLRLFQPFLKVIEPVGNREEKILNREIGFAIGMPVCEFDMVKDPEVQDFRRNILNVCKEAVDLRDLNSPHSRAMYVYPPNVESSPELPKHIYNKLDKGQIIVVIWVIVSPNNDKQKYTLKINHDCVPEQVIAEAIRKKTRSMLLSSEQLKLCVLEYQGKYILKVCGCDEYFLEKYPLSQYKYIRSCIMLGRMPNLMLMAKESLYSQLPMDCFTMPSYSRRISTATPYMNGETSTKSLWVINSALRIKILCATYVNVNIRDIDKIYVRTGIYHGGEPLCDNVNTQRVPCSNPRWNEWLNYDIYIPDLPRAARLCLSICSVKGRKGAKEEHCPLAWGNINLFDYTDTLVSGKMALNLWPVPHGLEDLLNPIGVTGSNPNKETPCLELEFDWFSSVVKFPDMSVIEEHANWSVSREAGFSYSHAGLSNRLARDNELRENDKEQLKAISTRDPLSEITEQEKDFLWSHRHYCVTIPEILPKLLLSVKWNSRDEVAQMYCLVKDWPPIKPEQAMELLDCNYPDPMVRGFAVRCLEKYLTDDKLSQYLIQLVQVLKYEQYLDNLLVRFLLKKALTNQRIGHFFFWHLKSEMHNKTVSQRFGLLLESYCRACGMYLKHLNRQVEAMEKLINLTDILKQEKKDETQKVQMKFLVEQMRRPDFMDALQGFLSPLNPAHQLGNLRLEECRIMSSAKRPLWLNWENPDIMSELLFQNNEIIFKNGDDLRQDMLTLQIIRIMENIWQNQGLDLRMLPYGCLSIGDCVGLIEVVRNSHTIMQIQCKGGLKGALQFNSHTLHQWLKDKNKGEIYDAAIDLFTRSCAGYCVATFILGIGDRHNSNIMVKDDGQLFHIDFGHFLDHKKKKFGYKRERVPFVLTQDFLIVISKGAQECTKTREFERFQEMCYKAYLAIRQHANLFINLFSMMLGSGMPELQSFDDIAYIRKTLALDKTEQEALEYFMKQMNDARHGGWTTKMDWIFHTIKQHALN
T2 sequence (P27986 whole entry partner): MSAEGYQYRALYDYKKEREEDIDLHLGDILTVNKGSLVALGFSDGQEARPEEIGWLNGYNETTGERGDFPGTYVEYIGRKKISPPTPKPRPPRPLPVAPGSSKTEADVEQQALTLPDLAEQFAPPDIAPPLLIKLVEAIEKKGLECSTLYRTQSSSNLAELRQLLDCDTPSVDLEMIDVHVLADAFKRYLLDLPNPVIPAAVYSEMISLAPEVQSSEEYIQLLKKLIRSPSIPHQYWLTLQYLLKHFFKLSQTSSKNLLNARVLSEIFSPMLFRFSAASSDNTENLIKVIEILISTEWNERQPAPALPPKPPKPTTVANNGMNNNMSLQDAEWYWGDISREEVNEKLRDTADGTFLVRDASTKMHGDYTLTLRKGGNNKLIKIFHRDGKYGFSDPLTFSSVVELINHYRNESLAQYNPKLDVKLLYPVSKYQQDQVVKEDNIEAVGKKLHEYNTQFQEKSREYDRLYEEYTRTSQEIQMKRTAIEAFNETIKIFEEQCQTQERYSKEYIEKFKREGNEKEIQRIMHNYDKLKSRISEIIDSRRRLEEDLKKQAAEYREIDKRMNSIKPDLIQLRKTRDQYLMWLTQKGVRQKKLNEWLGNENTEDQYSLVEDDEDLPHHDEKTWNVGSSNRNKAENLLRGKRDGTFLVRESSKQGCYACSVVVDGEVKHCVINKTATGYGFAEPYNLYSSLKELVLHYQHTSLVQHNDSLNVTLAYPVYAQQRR
How it was run: as §1

[3] = target: PI3K-α (PIK3CA) in MDA-MB-453 cells (Homo sapiens, UniProt P42336); test: PI3K-alpha kinase (PIK3CA) in vitro cell based assay, MDA-MB-453 cells, SureFire Ultra AlphaLisa; details: read-out: PI3K-α (PIK3CA) in vitro cell based assay IC50
PI3K-α (PIK3CA) in MDA-MB-453 cells, sequence (P27986 2-724): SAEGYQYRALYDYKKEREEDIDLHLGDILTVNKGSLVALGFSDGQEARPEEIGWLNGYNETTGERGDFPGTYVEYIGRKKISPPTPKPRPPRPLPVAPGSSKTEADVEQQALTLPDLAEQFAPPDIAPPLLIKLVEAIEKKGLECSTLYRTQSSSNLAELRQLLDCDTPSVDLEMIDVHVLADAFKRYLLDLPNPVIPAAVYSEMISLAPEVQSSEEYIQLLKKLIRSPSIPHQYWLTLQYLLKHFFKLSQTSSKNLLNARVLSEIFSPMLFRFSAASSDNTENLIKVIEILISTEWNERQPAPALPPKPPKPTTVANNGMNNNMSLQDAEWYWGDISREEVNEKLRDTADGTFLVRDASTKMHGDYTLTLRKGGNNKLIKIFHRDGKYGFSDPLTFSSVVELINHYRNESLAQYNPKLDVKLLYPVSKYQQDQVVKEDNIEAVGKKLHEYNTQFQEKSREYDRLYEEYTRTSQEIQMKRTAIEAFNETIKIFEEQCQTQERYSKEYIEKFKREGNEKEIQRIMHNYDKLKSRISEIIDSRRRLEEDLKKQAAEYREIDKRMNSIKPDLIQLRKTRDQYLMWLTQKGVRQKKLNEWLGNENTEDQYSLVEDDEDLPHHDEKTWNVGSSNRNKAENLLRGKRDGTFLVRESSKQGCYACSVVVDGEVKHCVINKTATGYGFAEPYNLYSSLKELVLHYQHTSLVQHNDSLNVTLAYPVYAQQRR
PI3K-α (PIK3CA) in MDA-MB-453 cells, sequence (P42336 whole entry): as the sequence (P42336 whole entry H1047R) above, with R1047H counted along it
How it was run: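 Cells treated 3 h in serum-free MEM with 1 μg/mL insulin, 10-point 1:3 series in 0.3% DMSO, then lysed for SureFire Ultra AlphaLisa read-out. Inhibition normalized to DMSO (max) and 1 μM GDC-0032 (min); duplicate averages fitted by 4-parameter logistic for relative IC50.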

[4] = PIP2diC8 lipid substrate (footnote 1)

Row | Compound | IC50 ([1]; Soy PI lipid substrate) | IC50 ([2]; Soy PI lipid substrate) | IC50 [3] | IC50 [1, 4] | IC50 [2, 4]
1 | Cc1cn2cc(-c3cc(=O)c4cc(F)cc(C(C)Nc5ccccc5C(=O)O)c4o3)ccc2n1 (single isomer, unassigned) [Example 51, 2-[1-[6-Fluoro-2-(2-methylimidazo[1,2-a]pyridin-6-yl)-4-oxo-chromen-8-yl]ethylamino]benzoic acid] | 1000 to 5000 nM | < 500 nM | < 50 nM | – | –
2 | Cc1cc(C(C)Nc2ccccc2C(=O)O)c2oc(-c3cc4cn(C)nc4cn3)cc(=O)c2c1 (single isomer, unassigned) [Example 160, 2-[1-[6-Methyl-2-(2-methylpyrazolo[3,4-c]pyridin-5-yl)-4-oxo-chromen-8-yl]ethylamino]benzoic acid] | 1000 to 5000 nM | < 500 nM | 50 to 100 nM | – | –
3 | Cc1cc(C(C)Nc2cccc(F)c2C(=O)O)c2oc(-c3cc(C)c4nn(C)cc4c3)cc(=O)c2c1 (single isomer, unassigned) [Example 190, 2-[1-[2-(2,7-Dimethylindazol-5-yl)-6-methyl-4-oxo-chromen-8-yl]ethylamino]-6-fluoro-benzoic acid] | 500 to 1000 nM | < 500 nM | 50 to 100 nM | – | –
4 | Cc1cc(C(C)Nc2ccccc2C(=O)O)c2oc(-c3cccc4ocnc34)cc(=O)c2c1 (single isomer, unassigned) [Example 110, 2-[1-[2-(1,3-Benzoxazol-4-yl)-6-methyl-4-oxo-chromen-8-yl]ethylamino]benzoic acid] | 5000 to 10000 nM | < 500 nM | < 50 nM | – | –
5 | Cc1cc(C(C)Nc2ccc(Cl)nc2C(=O)O)c2oc(-c3ccc4c(c3)c(C)nn4C)cc(=O)c2c1 (single isomer, unassigned) [Example 224, 6-Chloro-3-[1-[2-(1,3-dimethylindazol-5-yl)-6-methyl-4-oxo-chromen-8-yl]ethylamino]pyridine-2-carboxylic acid] | < 500 nM | < 500 nM | < 50 nM | – | –
6 | Cc1cc(C(C)Nc2ccccc2C(=O)O)c2oc(-c3ccc4nn(C)cc4c3)cc(=O)c2c1 (single isomer, unassigned) [Example 8, 2-[1-[6-Methyl-2-(2-methylindazol-5-yl)-4-oxo-chromen-8-yl]ethylamino]benzoic acid] | 500 to 1000 nM | < 500 nM | < 50 nM | – | –
7 | Cc1cc(C(C)Nc2ccccc2C(=O)O)c2oc(-c3ccc4cn(C)nc4c3)cc(=O)c2c1 (single isomer, unassigned) [Example 1, 2-[1-[6-Methyl-2-(2-methylindazol-6-yl)-4-oxo-chromen-8-yl]ethylamino]benzoic acid] | 1000 to 5000 nM | < 500 nM | 50 to 100 nM | – | –
8 | Cc1cc([C@@H](C)Nc2ccc(Cl)nc2C(=O)O)c2oc(-c3ccc4nc(C)sc4n3)cc(=O)c2c1 [Example 251, 6-Chloro-3-[[(1R)-1-[6-methyl-2-(2-methylthiazolo[5,4-b]pyridin-5-yl)-4-oxo-chromen-8-yl]ethyl]amino]pyridine-2-carboxylic acid] | 1000 to 5000 nM | < 500 nM | 50 to 100 nM | – | –
9 | Cc1cc(C(C)Nc2ccccc2C(=O)O)c2oc(-c3cccc4oc(C)nc34)cc(=O)c2c1 (single isomer, unassigned) [Example 117, 2-[1-[6-Methyl-2-(2-methyl-1,3-benzoxazol-4-yl)-4-oxo-chromen-8-yl]ethylamino]benzoic acid] | 1000 to 5000 nM | 500 to 1000 nM | > 500 nM | – | –
10 | Cc1cc(-c2cc(=O)c3cc(C(F)(F)F)cc(C(C)Nc4ccc(Cl)nc4C(=O)O)c3o2)cc2cn(C)nc12 (single isomer, unassigned) [Example 191, 6-Chloro-3-[1-[2-(2,7-dimethylindazol-5-yl)-4-oxo-6-(trifluoromethyl)chromen-8-yl]ethylamino]pyridine-2-carboxylic acid] | 500 to 1000 nM | < 500 nM | 100 to 500 nM | – | –
11 | Cc1cc(C(C)Nc2ccccc2C(=O)O)c2oc(-c3ccc4oc(C)nc4c3)cc(=O)c2c1 (single isomer, unassigned) [Example 19, 2-[1-[6-Methyl-2-(2-methyl-1,3-benzoxazol-5-yl)-4-oxo-chromen-8-yl]ethylamino]benzoic acid] | 1000 to 5000 nM | < 500 nM | > 500 nM | – | –
12 | Cc1cc(C(C)Nc2ccccc2C(=O)O)c2oc(-c3ccc4cnn(C)c4c3)cc(=O)c2c1 (single isomer, unassigned) [Example 25, 2-[1-[6-Methyl-2-(1-methylindazol-6-yl)-4-oxo-chromen-8-yl]ethylamino]benzoic acid] | < 500 nM | < 500 nM | 50 to 100 nM | – | –
13 | Cc1cc(C(C)Nc2ccc(Cl)nc2C(=O)O)c2oc(-c3ccc4cc[nH]c4n3)cc(=O)c2c1 (single isomer, unassigned) [Example 216, 6-Chloro-3-[1-[6-methyl-4-oxo-2-(1H-pyrrolo[2,3-b]pyridin-6-yl)chromen-8-yl]ethylamino]pyridine-2-carboxylic acid] | > 10000 nM | 1000 to 5000 nM | > 500 nM | – | –
14 | Cc1cc(C(C)Nc2cccc(F)c2C(=O)O)c2oc(-c3ccc4cnn(C)c4c3)cc(=O)c2c1 (single isomer, unassigned) [Example 222, 2-fluoro-6-[1-[6-methyl-2-(1-methylindazol-6-yl)-4-oxo-chromen-8-yl]ethylamino]benzoic acid] | 500 to 1000 nM | < 500 nM | 100 to 500 nM | – | –
15 | COc1ccc2cc(-c3cc(=O)c4cc(C)cc([C@@H](C)Nc5ccccc5C(=O)O)c4o3)ccc2n1 [Example 249, 2-[[(1R)-1-[2-(2-Methoxy-6-quinolyl)-6-methyl-4-oxo-chromen-8-yl]ethyl]amino]benzoic acid] | 1000 to 5000 nM | < 500 nM | 50 to 100 nM | – | –
16 | Cc1cc(C(C)Nc2ccccc2C(=O)O)c2oc(-c3ccc4nn(C)cc4c3)cc(=O)c2c1 (single isomer, unassigned) [Example 75, 2-[1-[6-Methyl-2-(2-methylindazol-5-yl)-4-oxo-chromen-8-yl]ethylamino]benzoic acid] | 500 to 1000 nM | < 500 nM | < 50 nM | – | –
17 | Cc1cc(C(C)Nc2ccccc2C(=O)O)c2oc(-c3cc4ccncc4o3)c(C)c(=O)c2c1 (single isomer, unassigned) [Example 151, 2-[1-(2-Furo[2,3-c]pyridin-2-yl-3,6-dimethyl-4-oxo-chromen-8-yl)ethylamino]benzoic acid] | 500 to 1000 nM | < 500 nM | < 50 nM | – | –
18 | Cc1cc(C(C)Nc2ccccc2C(=O)O)c2oc(-c3cc4cnccc4o3)cc(=O)c2c1 (single isomer, unassigned) [Example 22, 2-[1-(2-Furo[3,2-c]pyridin-2-yl-6-methyl-4-oxo-chromen-8-yl)ethylamino]benzoic acid] | 500 to 1000 nM | < 500 nM | < 50 nM | – | –
19 | Cc1cc(C(C)Nc2ccccc2C(=O)O)c2oc(-c3ccc4c(cnn4C)c3)c(C)c(=O)c2c1 (single isomer, unassigned) [Example 150, 2-[1-[3,6-Dimethyl-2-(1-methylindazol-5-yl)-4-oxo-chromen-8-yl]ethylamino]benzoic acid] | < 500 nM | < 500 nM | < 50 nM | – | –
20 | Cc1cc([C@@H](C)Nc2cccc(F)c2C(=O)O)c2oc(-c3ccc4nc(C)cn4c3)c(C)c(=O)c2c1 [Example 229, 2-[[(1R)-1-[3,6-Dimethyl-2-(2-methylimidazo[1,2-a]pyridin-6-yl)-4-oxo-chromen-8-yl]ethyl]amino]-6-fluoro-benzoic acid] | < 500 nM | < 500 nM | 100 to 500 nM | – | –
21 | Cc1cc([C@@H](C)Nc2cccc(F)c2C(=O)O)c2oc(-c3ccc4c(cnn4C)c3)cc(=O)c2c1 [Example 197, 2-Fluoro-6-[[(1R)-1-[6-methyl-2-(1-methylindazol-5-yl)-4-oxo-chromen-8-yl]ethyl]amino]benzoic acid] | 500 to 1000 nM | < 500 nM | < 50 nM | – | –
22 | Cc1cc([C@@H](C)Nc2ccc(F)cc2C(=O)O)c2oc(-c3ccc4cnn(C)c4c3)cc(=O)c2c1 [Example 238, 5-Fluoro-2-[[(1R)-1-[6-methyl-2-(1-methylindazol-6-yl)-4-oxo-chromen-8-yl]ethyl]amino]benzoic acid] | < 500 nM | < 500 nM | < 50 nM | – | –
23 | Cc1cc(C(C)Nc2ccccc2C(=O)O)c2oc(-c3cc4ccncc4o3)cc(=O)c2c1 (stereo not drawn) [Example 7, 2-[1-(2-Furo[2,3-c]pyridin-2-yl-6-methyl-4-oxo-chromen-8-yl)ethylamino]benzoic acid] | – | – | 50 to 100 nM | < 500 nM | < 500 nM
24 | Cc1cc(C(C)Nc2ccccc2C(=O)O)c2oc(-c3cccc4cn(C)nc34)cc(=O)c2c1 (single isomer, unassigned) [Example 116, 2-[1-[6-Methyl-2-(2-methylindazol-7-yl)-4-oxo-chromen-8-yl]ethylamino]benzoic acid] | > 10000 nM | < 500 nM | 100 to 500 nM | – | –
25 | Cc1cc(C(C)Nc2ccc(Cl)nc2C(=O)O)c2oc(-c3ccc4cc[nH]c4n3)cc(=O)c2c1 (stereo not drawn) [Example 195, 6-Chloro-3-[1-[6-methyl-4-oxo-2-(1H-pyrrolo[2,3-b]pyridin-6-yl)chromen-8-yl]ethylamino]pyridine-2-carboxylic acid] | 500 to 1000 nM | < 500 nM | < 50 nM | – | –
